Data from patent publication US20220267754A1, “VECTOR-BASED MUTAGENESIS SYSTEM” (priority 2015, published 2022).

How the values were obtained:
E. coli = conditions: tabulated from Antimicrobial Index Knowledgebase; cited from earlier work
[1] = tested on: E. coli MG1655 ΔrecA::apra; type: cell-based

## CN[C@@H]1[C@H](O)[C@H](NC)[C@H]2O[C@@]3(O)C(=O)C[C@@H](C)O[C@H]3O[C@@H]2[C@H]1O [spectinomycin]
E. coli
  MIC: 8 to 64 µg/mL

## CCOS(C)(=O)=O [EMS, ethyl methanesulfonate]
[1]
  fraction of cells resistant, CRB: 0.00E+00
  fraction of cells resistant, CTX: 1.67E−07
  fraction of cells resistant, FOS: 3.75E−04
  fraction of cells resistant, KAN: 8.17E−04
  fraction of cells resistant, MIX: 1.10E−04
  fraction of cells resistant, RIF: 6.68E−05
  fraction of cells resistant, SPC: 0.00E+00
  fraction of cells resistant, STR: 1.33E−06
  fraction of cells resistant, TET: 0.00E+00

## CC1(C)S[C@@H]2[C@H](NC(=O)C(C(=O)O)c3ccccc3)C(=O)N2[C@H]1C(=O)O (some centres unmarked) [carbenicillin]
E. coli
  MIC: 2 to 25 µg/mL

## CCn1cc(C(=O)O)c(=O)c2cc(F)c(N3CCNCC3)cc21 [norfloxacin]
E. coli
  MIC: 0.016 to 0.125 µg/mL

## CO[C@H]1/C=C/O[C@@]2(C)Oc3c(C)c(O)c4c(O)c(c(/C=N/N5CCN(C)CC5)c(O)c4c3C2=O)NC(=O)/C(C)=C\C=C\[C@H](C)[C@H](O)[C@@H](C)[C@@H](O)[C@@H](C)[C@H](OC(C)=O)[C@@H]1C [rifampin]
E. coli
  MIC: 0.5 to 16 µg/mL

## [H]/N=C(/N)N[C@H]1[C@H](O)[C@@H](O)[C@H](O[C@@H]2O[C@@H](C)[C@](O)(C=O)[C@H]2O[C@@H]2O[C@@H](CO)[C@H](O)[C@@H](O)[C@@H]2NC)[C@@H](N/C(N)=N\[H])[C@@H]1O [streptomycin]
E. coli
  MIC: 1 to 16 µg/mL

## Cc1ncc([N+](=O)[O-])n1CCO [metronidazole]
E. coli
  MIC: 8 to 32 µg/mL

## C[C@@H]1O[C@@H]1P(=O)(O)O [fosfomycin]
E. coli
  MIC: 0.125 to 8 µg/mL

## CO/N=C(\C(=O)N[C@@H]1C(=O)N2C(C(=O)O)=C(COC(C)=O)CS[C@H]12)c1csc(N)n1 [cefotaxime]
E. coli
  MIC: 0.016 to 0.25 µg/mL

## Nc1ncc2[nH]cnc2n1 [2AP, 2-aminopurine]
[1]
  fraction of cells resistant, CRB: 1.17E−07
  fraction of cells resistant, CTX: 2.80E−06
  fraction of cells resistant, FOS: 4.83E−04
  fraction of cells resistant, KAN: 1.53E−03
  fraction of cells resistant, MIX: 2.03E−05
  fraction of cells resistant, RIF: 1.03E−05
  fraction of cells resistant, SPC: 2.50E−07
  fraction of cells resistant, STR: 3.17E−07
  fraction of cells resistant, TET: 0.00E+00
